Literature values as cited in PubChem BioAssay AID1259409 (Chemical Carcinogenesis Research Information System (CCRIS), 2018).

Tested on: rodent chemically induced tumor inhibition, incidence and multiplicity
Assay: CCRIS tumor inhibitor studies

## COc1cc([C@@H]2Oc3cc([C@H]4Oc5cc(O)cc(O)c5C(=O)[C@@H]4O)ccc3O[C@H]2CO)ccc1O
Carcinogen: 1,2-DIMETHYLHYDRAZINE, 540-73-8, Dose [Inhibitor]: 0, 0.1% IN DIET FOR 32 WK BEGINNING AT 24 D OF AGE (STUDY DURATION: 32 WK), Route [Inhibitor]: ORAL, Species: RAT, Strain/Sex: SPRAGUE-DAWLEY/MALE, Target Tissue: Type of Lesion: COLON: ADENOCARCINOMA, Dose [Carcinogen]: 20 MG/KG 1/WK FOR 15 WK BEGINNING ON D 37, Promoter: NONE USED
  tumour outcome (control, treated, inhibition, significance): 19/22 (86%), 11/16 (69%), 20%, not calculated
Carcinogen: 1,2-DIMETHYLHYDRAZINE, 540-73-8, Dose [Inhibitor]: 0, 0.1% IN DIET FOR 32 WK BEGINNING AT 24 D OF AGE (STUDY DURATION: 32 WK), Route [Inhibitor]: ORAL, Species: RAT, Strain/Sex: SPRAGUE-DAWLEY/MALE, Target Tissue: Type of Lesion: SMALL INTESTINE: ADENOCARCINOMA, Dose [Carcinogen]: 20 MG/KG 1/WK FOR 15 WK BEGINNING ON D 37, Promoter: NONE USED
  tumour outcome (control, treated, inhibition, significance): 18/22 (82%), 9/16 (56%), 32%, not calculated
Carcinogen: N-BUTYL-N-(4-HYDROXYBUTYL)NITROSAMINE, 3817-11-6, Dose [Inhibitor]: 0, 1000 PPM IN DIET FOR 8 WK (STUDY DURATION: 32 WK), Route [Inhibitor]: ORAL, Species: MOUSE, Strain/Sex: ICR/MALE, Target Tissue: Type of Lesion: URINARY BLADDER: PAPILLOMA, Dose [Carcinogen]: 500 PPM IN DRINKING WATER FOR 6 WK BEGINNING 1 WK AFTER FIRST INHIBITOR DOSE, Promoter: NONE USED
  tumour outcome (control, treated, inhibition, significance): 2/44 (5%), 1/34 (3%), 40%, not significant
Carcinogen: N-BUTYL-N-(4-HYDROXYBUTYL)NITROSAMINE, 3817-11-6, Dose [Inhibitor]: 0, 1000 PPM IN DIET FOR 8 WK (STUDY DURATION: 32 WK), Route [Inhibitor]: ORAL, Species: MOUSE, Strain/Sex: ICR/MALE, Target Tissue: Type of Lesion: URINARY BLADDER: TRANSITIONAL CELL CARCINOMA, Dose [Carcinogen]: 500 PPM IN DRINKING WATER FOR 6 WK BEGINNING 1 WK AFTER FIRST INHIBITOR DOSE, Promoter: NONE USED
  tumour outcome (control, treated, inhibition, significance): 17/44 (39%), 4/34 (12%), 69%, p< 0.01
Carcinogen: N-BUTYL-N-(4-HYDROXYBUTYL)NITROSAMINE, 3817-11-6, Dose [Inhibitor]: 0, 1000 PPM IN DIET FOR 24 WK BEGINNING 1 WK POST FINAL CARCINOGEN DOSE (STUDY DURATION: 32 WK), Route [Inhibitor]: ORAL, Species: MOUSE, Strain/Sex: ICR/MALE, Target Tissue: Type of Lesion: URINARY BLADDER: PAPILLOMA, Dose [Carcinogen]: 500 PPM IN DRINKING WATER FOR 6 WK BEGINNING 1 WK AFTER FIRST INHIBITOR DOSE, Promoter: NONE USED
  outcome: 2/44 (5), 5/30 (17%), -240%, not significant
Carcinogen: N-BUTYL-N-(4-HYDROXYBUTYL)NITROSAMINE, 3817-11-6, Dose [Inhibitor]: 0, 1000 PPM IN DIET FOR 24 WK BEGINNING 1 WK POST FINAL CARCINOGEN DOSE (STUDY DURATION: 32 WK), Route [Inhibitor]: ORAL, Species: MOUSE, Strain/Sex: ICR/MALE, Target Tissue: Type of Lesion: URINARY BLADDER: TRANSITIONAL CELL CARCINOMA, Dose [Carcinogen]: 500 PPM IN DRINKING WATER FOR 6 WK BEGINNING 1 WK AFTER FIRST INHIBITOR DOSE, Promoter: NONE USED
  tumour outcome (control, treated, inhibition, significance): 17/44 (39%), 5/30 (17%), 56%, p< 0.05
Carcinogen: N-Butyl-N-(4-hydroxybutyl)nitrosamine, 3817-11-6, Dose [Inhibitor]: 200 mg/kg bw 1 wk before carcinogen, dose duration 51 wk, study duration 56 wk, Route [Inhibitor]: Oral (gavage) 5 d/wk, Species: Mouse, Strain/Sex: ICR/Male, Target Tissue: Type of Lesion: Urinary Bladder: carcinoma, Dose [Carcinogen]: 0, 0.5% in drinking water for 6 wk, Promoter: None
  outcome: 52%, 7.7%, p=0.001

## CC(C)=CCC/C(C)=C/CC/C(C)=C/CCC1(C)CCc2cc(O)ccc2O1 (stereo not drawn)
Carcinogen: 7,12-DIMETHYLBENZ[A]ANTHRACENE, 57-97-6, Dose [Inhibitor]: 0, 3.381 UMOL/G IN DIET FOR DURATION OF STUDY (STUDY DURATION: 18 WK), Route [Inhibitor]: ORAL, Species: RAT, Strain/Sex: SPRAGUE-DAWLEY/FEMALE, Target Tissue: Type of Lesion: MAMMARY GLAND: TUMOR, Dose [Carcinogen]: 50 MG/KG IN SESAME OIL ONCE, Promoter: NONE USED
  tumour outcome (control, treated, inhibition, significance): 88%, 72%, 18%, not significant
Carcinogen: N-METHYL-N-NITROSOUREA, 684-93-5, Dose [Inhibitor]: 0, 3.381 UMOL/G IN DIET FOR DURATION OF STUDY (STUDY DURATION: 19 WK), Route [Inhibitor]: ORAL, Species: RAT, Strain/Sex: SPRAGUE-DAWLEY/FEMALE, Target Tissue: Type of Lesion: MAMMARY GLAND: TUMOR, Dose [Carcinogen]: 30 MG/KG IN ACIDIFIED SALINE ONCE, Promoter: NONE USED
  tumour outcome (control, treated, inhibition, significance): 60%, 76%, -27%, not significant

## Cc1c(O)cc2c(c1C)OC(C)(CCCC(C)CCCC(C)CCCC(C)C)CC2 (stereo not drawn)
Carcinogen: N-NITROSODIETHYLAMINE, 55-18-5, Dose [Inhibitor]: 0, 5% IN BASAL DIET BEGINNING AT 8 WK OF AGE AND CONTINUING FOR 22 MO (STUDY DURATION: 22 MO), Route [Inhibitor]: ORAL, Species: MOUSE, Strain/Sex: 6HF1/MALE, Target Tissue: Type of Lesion: ESOPHAGUS: SQUAMOUS CELL CARCINOMA, Dose [Carcinogen]: 100 MG/L IN DRINKING WATER DURING 11-13 WK OF AGE, Promoter: NONE USED
  tumour outcome (control, treated, inhibition, significance): 6/50 (12%), 0/50 (0%), 100%, not calculated
Carcinogen: N-NITROSODIETHYLAMINE, 55-18-5, Dose [Inhibitor]: 0, 5% IN BASAL DIET BEGINNING AT 8 WK OF AGE AND CONTINUING FOR 22 MO (STUDY DURATION: 22 MO), Route [Inhibitor]: ORAL, Species: MOUSE, Strain/Sex: 6HF1/MALE, Target Tissue: Type of Lesion: FORESTOMACH: SQUAMOUS CELL CARCINOMA, Dose [Carcinogen]: 100 MG/L IN DRINKING WATER DURING 11-13 WK OF AGE, Promoter: NONE USED
  tumour outcome (control, treated, inhibition, significance): 82%, 72%, 12%, not calculated
Carcinogen: N-NITROSODIETHYLAMINE, 55-18-5, Dose [Inhibitor]: 0, 5% IN BASAL DIET BEGINNING AT 8 WK OF AGE AND CONTINUING FOR 22 MO (STUDY DURATION: 22 MO), Route [Inhibitor]: ORAL, Species: MOUSE, Strain/Sex: 6HF1/MALE, Target Tissue: Type of Lesion: LIVER: TUMOR, Dose [Carcinogen]: 100 MG/L IN DRINKING WATER DURING 11-13 WK OF AGE, Promoter: NONE USED
  tumour outcome (control, treated, inhibition, significance): 39/50 (78%), 40/50 (80%), -3%, not calculated
Carcinogen: N-NITROSODIETHYLAMINE, 55-18-5, Dose [Inhibitor]: 0, 5% IN BASAL DIET BEGINNING AT 8 WK OF AGE AND CONTINUING FOR 22 MO (STUDY DURATION: 22 MO), Route [Inhibitor]: ORAL, Species: MOUSE, Strain/Sex: 6HF1/MALE, Target Tissue: Type of Lesion: LUNG: TUMOR, Dose [Carcinogen]: 100 MG/L IN DRINKING WATER DURING 11-13 WK OF AGE, Promoter: NONE USED
  tumour outcome (control, treated, inhibition, significance): 42/50 (84%), 24/50 (48%), 43%, p<0.05
